Measurements as given in US7256286B2, “Bryostatin analogues, synthetic methods and uses” (The Board of Trustees of the Leland Stanford Junior …, priority 1999, dated 2007).

Key:
[1] = tested on: CCRF-CEM; test: NCI human cancer cell line growth inhibition: CCRF-CEM; format: cell-based; settings: Leukemia
[2] = tested on: HL-60(TB); test: cells; format: cell-based, human
[3] = tested on: K-562; test: NCI human cancer cell line growth inhibition: K-562; format: cell-based; settings: K-562, Leukemia
[4] = tested on: MOLT-4; test: NCI human cancer cell line growth inhibition: MOLT-4; format: cell-based; settings: MOLT-4, Leukemia
[5] = tested on: RPMI-8226; test: NCI human cancer cell line growth inhibition: RPMI-8226; format: cell-based; settings: RPMI-8226, Leukemia
[6] = tested on: SR; test: NCI human cancer cell line growth inhibition: SR; format: cell-based; settings: Leukemia
[7] = tested on: A549/ATCC; test: NCI human cancer cell line growth inhibition: A549/ATCC; format: cell-based; settings: NSC Lung
[8] = tested on: EKVX; test: NCI human cancer cell line growth inhibition: EKVX; format: cell-based; settings: NSC Lung
[9] = tested on: HOP-62; test: NCI human cancer cell line growth inhibition: HOP-62; format: cell-based; settings: HOP-62, NSC Lung
[10] = tested on: HOP-92; test: NCI human cancer cell line growth inhibition: HOP-92; format: cell-based; settings: HOP-92, NSC Lung
[11] = tested on: NCI-H226; format: cell-based, human; settings: NCI-H226, NSC Lung
[12] = tested on: NCI-H23; format: cell-based, human; settings: NCI-H23, NSC Lung
[13] = tested on: NCI-H460; format: cell-based, human; settings: NCI-H460, NSC Lung
[14] = tested on: NCI-H522; format: cell-based, human; settings: NCI-H522, NSC Lung
[15] = tested on: COLO 205; test: NCI human cancer cell line growth inhibition: COLO 205; format: cell-based; settings: COLO 205, Colon
[16] = tested on: HCC-2998; test: NCI human cancer cell line growth inhibition: HCC-2998; format: cell-based; settings: HCC-2998, Colon
[17] = tested on: HCT-116; test: NCI human cancer cell line growth inhibition: HCT-116; format: cell-based; settings: HCT-116, Colon
[18] = tested on: HCT-15; test: NCI human cancer cell line growth inhibition: HCT-15; format: cell-based; settings: HCT-15, Colon
[19] = tested on: HT29; test: NCI human cancer cell line growth inhibition: HT29; format: cell-based; settings: HT29, Colon
[20] = tested on: KM12; test: NCI human cancer cell line growth inhibition: KM12; format: cell-based; settings: KM12, Colon
[21] = tested on: SW-620; test: NCI human cancer cell line growth inhibition: SW-620; format: cell-based; settings: SW-620, Colon
[22] = tested on: SF-268; test: NCI human cancer cell line growth inhibition: SF-268; format: cell-based; settings: SF-268, CNS
[23] = tested on: SF-295; test: NCI human cancer cell line growth inhibition: SF-295; format: cell-based; settings: SF-295, CNS
[24] = tested on: SF-539; test: NCI human cancer cell line growth inhibition: SF-539; format: cell-based; settings: SF-539, CNS
[25] = tested on: SNB-19; test: NCI human cancer cell line growth inhibition: SNB-19; format: cell-based; settings: SNB-19, CNS
[26] = tested on: SNB-75; test: NCI human cancer cell line growth inhibition: SNB-75; format: cell-based; settings: SNB-75, CNS
[27] = tested on: U251; test: NCI human cancer cell line growth inhibition: U251; format: cell-based; settings: U251, CNS
[28] = tested on: PC-3; test: NCI human cancer cell line growth inhibition: PC-3; format: cell-based; settings: PC-3, Prostate
[29] = tested on: DU-145; test: NCI human cancer cell line growth inhibition: DU-145; format: cell-based; settings: DU-145, Prostate
[30] = tested on: LOX IMVI; test: NCI human cancer cell line growth inhibition: LOX IMVI; format: cell-based; settings: Melanoma
[31] = tested on: MALME-3M; test: NCI human cancer cell line growth inhibition: MALME-3M; format: cell-based; settings: Melanoma
[32] = tested on: MI4; test: NCI human cancer cell line growth inhibition: MI4; format: cell-based; settings: MI4, Melanoma
[33] = tested on: SK-MEL-2; test: NCI human cancer cell line growth inhibition: SK-MEL-2; format: cell-based; settings: SK-MEL-2, Melanoma
[34] = tested on: SK-MEL-28; test: NCI human cancer cell line growth inhibition: SK-MEL-28; format: cell-based; settings: SK-MEL-28, Melanoma
[35] = tested on: SK-MEL-5; test: NCI human cancer cell line growth inhibition: SK-MEL-5; format: cell-based; settings: SK-MEL-5, Melanoma
[36] = tested on: UACC-257; test: NCI human cancer cell line growth inhibition: UACC-257; format: cell-based; settings: UACC-257, Melanoma
[37] = tested on: UACC-62; test: NCI human cancer cell line growth inhibition: UACC-62; format: cell-based; settings: UACC-62, Melanoma
[38] = tested on: IGROVI; test: NCI human cancer cell line growth inhibition: IGROVI; format: cell-based; settings: Ovarian
[39] = tested on: OVCAR-3; test: NCI human cancer cell line growth inhibition: OVCAR-3; format: cell-based; settings: OVCAR-3, Ovarian
[40] = tested on: OVCAR-4; test: NCI human cancer cell line growth inhibition: OVCAR-4; format: cell-based; settings: OVCAR-4, Ovarian
[41] = tested on: OVCAR-5; test: NCI human cancer cell line growth inhibition: OVCAR-5; format: cell-based; settings: OVCAR-5, Ovarian
[42] = tested on: OVCAR-8; test: NCI human cancer cell line growth inhibition: OVCAR-8; format: cell-based; settings: OVCAR-8, Ovarian
[43] = tested on: SK-OV-3; test: NCI human cancer cell line growth inhibition: SK-OV-3; format: cell-based; settings: SK-OV-3, Ovarian
[44] = tested on: 786-0; test: NCI human cancer cell line growth inhibition: 786-0; format: cell-based; settings: 786-0, Renal
[45] = tested on: A498; test: NCI human cancer cell line growth inhibition: A498; format: cell-based; settings: A498, Renal
[46] = tested on: ACHN; test: NCI human cancer cell line growth inhibition: ACHN; format: cell-based; settings: Renal
[47] = tested on: CAKI-1; test: NCI human cancer cell line growth inhibition: CAKI-1; format: cell-based; settings: CAKI-1, Renal
[48] = tested on: RXF-393; test: NCI human cancer cell line growth inhibition: RXF-393; format: cell-based; settings: RXF-393, Renal
[49] = tested on: SN12C; test: NCI human cancer cell line growth inhibition: SN12C; format: cell-based; settings: Renal
[50] = tested on: TK-10; test: NCI human cancer cell line growth inhibition: TK-10; format: cell-based; settings: TK-10, Renal
[51] = tested on: UO-31; test: NCI human cancer cell line growth inhibition: UO-31; format: cell-based; settings: UO-31, Renal
[52] = tested on: MCF7; test: NCI human cancer cell line growth inhibition: MCF7; format: cell-based; settings: MCF7, Breast
[53] = tested on: NCI/ADR-RES; format: cell-based, human; settings: Breast
[54] = tested on: MDA-MB-231/ATCC; test: NCI human cancer cell line growth inhibition: MDA-MB-231/ATCC; format: cell-based; settings: Breast
[55] = tested on: MDA-MB-435; test: NCI human cancer cell line growth inhibition: MDA-MB-435; format: cell-based; settings: MDA-MB-435, Breast
[56] = tested on: MDA-N; test: NCI human cancer cell line growth inhibition: MDA-N; format: cell-based; settings: Breast
[57] = tested on: BT-549; test: NCI human cancer cell line growth inhibition: BT-549; format: cell-based; settings: BT-549, Breast
[58] = tested on: T-47D; test: NCI human cancer cell line growth inhibition: T-47D; format: cell-based; settings: Breast
[59] = tested on: HS 578T; test: NCI human cancer cell line growth inhibition: HS 578T; format: cell-based; settings: Breast

## CCC/C=C/C=C/C(=O)O[C@H]1/C(=C/C(=O)OC)C[C@H]2C[C@H]([C@@H](C)O)OC(=O)C[C@H](O)C[C@@H]3C[C@H](OC(C)=O)C(C)(C)[C@](O)(C[C@@H]4C/C(=C/C(=O)OC)C[C@H](/C=C/C(C)(C)[C@]1(O)O2)O4)O3 [Bryo-1, reference compound]
[1]
  Growth inhibition (GI50): −5.30 log of molar concentration
[2]
  Growth inhibition (GI50): −5.70 log of molar concentration
[3]
  Growth inhibition (GI50): −5.40 log of molar concentration
[4]
  Growth inhibition (GI50): −5.50 log of molar concentration
[5]
  Growth inhibition (GI50): >−5 log of molar concentration
[6]
  Growth inhibition (GI50): >−5 log of molar concentration
[7]
  Growth inhibition (GI50): −5.20 log of molar concentration
[8]
  Growth inhibition (GI50): −5.30 log of molar concentration
[9]
  Growth inhibition (GI50): >−5 log of molar concentration
[10]
  Growth inhibition (GI50): −5.30 log of molar concentration
[11]
  Growth inhibition (GI50): >−5 log of molar concentration
[12]
  Growth inhibition (GI50): >−5 log of molar concentration
[13]
  Growth inhibition (GI50): −5.60 log of molar concentration
[14]
  Growth inhibition (GI50): >−5 log of molar concentration
[15]
  Growth inhibition (GI50): −5.40 log of molar concentration
[16]
  Growth inhibition (GI50): −5.30 log of molar concentration
[17]
  Growth inhibition (GI50): −5.30 log of molar concentration
[18]
  Growth inhibition (GI50): >−5 log of molar concentration
[19]
  Growth inhibition (GI50): −5.30 log of molar concentration
[20]
  Growth inhibition (GI50): −5.20 log of molar concentration
[21]
  Growth inhibition (GI50): −5.50 log of molar concentration
[22]
  Growth inhibition (GI50): −5.10 log of molar concentration
[23]
  Growth inhibition (GI50): −5.20 log of molar concentration
[24]
  Growth inhibition (GI50): >−5 log of molar concentration
[25]
  Growth inhibition (GI50): >−5 log of molar concentration
[26]
  Growth inhibition (GI50): −5.50 log of molar concentration
[27]
  Growth inhibition (GI50): −5.10 log of molar concentration
[28]
  Growth inhibition (GI50): −5.30 log of molar concentration
[29]
  Growth inhibition (GI50): >−5 log of molar concentration
[30]
  Growth inhibition (GI50): −5.10 log of molar concentration
[31]
  Growth inhibition (GI50): −5.20 log of molar concentration
[32]
  Growth inhibition (GI50): >−5 log of molar concentration
[33]
  Growth inhibition (GI50): −5.20 log of molar concentration
[34]
  Growth inhibition (GI50): −5.10 log of molar concentration
[35]
  Growth inhibition (GI50): −5.70 log of molar concentration
[36]
  Growth inhibition (GI50): −5.10 log of molar concentration
[37]
  Growth inhibition (GI50): −5.30 log of molar concentration
[38]
  Growth inhibition (GI50): −5.30 log of molar concentration
[39]
  Growth inhibition (GI50): −5.10 log of molar concentration
[40]
  Growth inhibition (GI50): −5.50 log of molar concentration
[41]
  Growth inhibition (GI50): >−5 log of molar concentration
[42]
  Growth inhibition (GI50): −5.10 log of molar concentration
[43]
  Growth inhibition (GI50): −5.10 log of molar concentration
[44]
  Growth inhibition (GI50): −5.20 log of molar concentration
[45]
  Growth inhibition (GI50): >−5 log of molar concentration
[46]
  Growth inhibition (GI50): −5.50 log of molar concentration
[47]
  Growth inhibition (GI50): −5.40 log of molar concentration
[48]
  Growth inhibition (GI50): −5.30 log of molar concentration
[49]
  Growth inhibition (GI50): −5.10 log of molar concentration
[50]
  Growth inhibition (GI50): >−5 log of molar concentration
[51]
  Growth inhibition (GI50): −5.60 log of molar concentration
[52]
  Growth inhibition (GI50): −5.20 log of molar concentration
[53]
  Growth inhibition (GI50): >−5 log of molar concentration
[54]
  Growth inhibition (GI50): −5.20 log of molar concentration
[55]
  Growth inhibition (GI50): −5.10 log of molar concentration
[56]
  Growth inhibition (GI50): −5.10 log of molar concentration
[57]
  Growth inhibition (GI50): −5.10 log of molar concentration
[58]
  Growth inhibition (GI50): −5.20 log of molar concentration
[59]
  Growth inhibition (GI50): −5.2 log of molar concentration
